Values of other authors, collected in US20040058943A1, “Medicinal composition for treatment of chronic cardiac failure” (priority 2001, published 2004).
Where two headings read alike, the source gives them in different places.

How the values were obtained:
[1] = system: model rats of heart failure after myocardial infarction; conditions: for effect on mortality: 9-months long-term oral administration
[2] = system: model rats of heart failure; conditions: 10-week oral administration

Compound	effect on mortality ([1]; dose 30 mg/kg·day)	effect on mortality ([1]; dose 100 mg/kg·day)	ameliorating the left ventricular end-diastolic pressure (LVEDP) ([1]; long-term oral administration)	maximum value of the first order differentiation of the left ventricular systolic pressure (LVdP/dtmax) ([1]; long-term oral administration)	ameliorating the left ventricular end-diastolic pressure (LVEDP) [2]	cardiac hypertrophy [2]	maximum value of the first order differentiation of the left ventricular systolic pressure (LVdP/dtmax) [2]
COc1ccccc1Oc1c(NS(=O)(=O)c2ccc(C(C)(C)C)cc2)nc(-c2ncccn2)nc1OCCO [bosentan]	ineffective	significantly reduces the mortality	effective	ineffective	–	–	–
COc1cc(OC)nc(O[C@H](C(=O)O)C(OC)(c2ccccc2)c2ccccc2)n1 [darusentan]	–	–	–	–	effective	ineffective	ineffective
